Data as given in ChEMBL document CHEMBL5370643, “Discovery of MK-1468: A Potent, Kinome-Selective, Brain-Penetrant Amidoisoquinoline LRRK2 Inhibitor for the Potential Treatment of Parkinson's Disease” (J Med Chem, 2023).
Values after ≈ are worked out from the molar mass of the structure shown.

How the values were obtained:
[1] = Toxicity in Wistar-Han rat assessed as body weight loss at 750 mg/kg, po administered once daily for 7 days; assay type: organism-based; conditions: in vivo, 168 h, time 7 day
[2] = molecular target: Leucine-rich repeat serine/threonine-protein kinase 2 (Homo sapiens, UniProt Q5S007, G2019S); assay: Inhibition of recombinant N-terminal GST-fused LRRK2 […] mutant (970 to 2527 residues) (unknown origin) using LRRKtide peptide as substrate assessed as inhibition of substrate phosphorylation preincubated with compound for 15 mins followed by substrate addition and measured after 90 mins in presence of ATP by TR-FRET assay
[3] = molecular target: hERG (Homo sapiens, UniProt Q12809); assay: Inhibition of hERG expressed in CHO cells at 10 uM by QPatch voltage clamp assay relative to control; assay type: toxicity, cell-based; conditions: CHO cells expressing hERG
[4] = system: rat Mdrl1 P-gp; assay: Efflux ratio of apparent permeability across basolateral to apical over apical to basolateral side in MDCK cells transfected with rat Mdrl1 P-gp incubated for 3 hrs by LC-MS/MS analysis; conditions: dog, MDCK-MDR1
[5] = system: mouse BCRP; assay: Efflux ratio of apparent permeability across basolateral to apical over apical to basolateral side in MDCK-II cells transfected with mouse BCRP incubated for 3 hrs by LC-MS/MS analysis; conditions: dog
[6] = Unbound brain-to-plasma concentration ratio in iv dosed Wistar-Han rat administered as cassette dose by LC-MS/MS analysis; assay type: ADME, organism-based; conditions: read-out: K(p,uu,brain)
[7] = Total clearance in Wistar-Han rat at 3 mg/kg, iv measured after 24 hrs by LC-MS/MS analysis; assay type: ADME, organism-based; conditions: in vivo
[8] = Intrinsic clearance in Wistar-Han rat at 3 mg/kg, iv measured after 24 hrs by LC-MS/MS analysis; assay type: ADME, organism-based; conditions: in vivo
[9] = Total clearance in rhesus monkey at 3 mg/kg, iv measured after 24 hrs by LC-MS/MS analysis; assay type: ADME, organism-based, Macaca mulatta; conditions: in vivo
[10] = Intrinsic clearance in Beagle dog at 0.5 mg/kg, iv measured after 24 hrs by LC-MS/MS analysis; assay type: ADME, organism-based, Canis lupus familiaris; conditions: in vivo
[11] = Oral bioavailability in Beagle dog at 5 mg/kg measured after 24 hrs by LC-MS/MS analysis; assay type: ADME, organism-based, Canis lupus familiaris; conditions: in vivo
[12] = MRT in rhesus monkey at 3 mg/kg, iv measured after 24 hrs by LC-MS/MS analysis; assay type: ADME, organism-based, Macaca mulatta; conditions: in vivo
[13] = Oral bioavailability in rhesus monkey at 10 mg/kg measured after 24 hrs by LC-MS/MS analysis; assay type: ADME, organism-based, Macaca mulatta; conditions: in vivo
[14] = Protein binding in rat plasma incubated for 4 hrs by equilibrium dialysis method; assay type: ADME, cell-free; conditions: read-out: PPB (converted)
[15] = Kinetic solubility of compound in FaSSIF at pH 6.5 measured after 24 hrs by UPLC/DAD analysis; assay type: physicochemical; conditions: read-out: Kinetic_solubility
[16] = Mutagenicity in Salmonella typhimurium TA98 at 30 to 5000 ug/plate incubated for 48 hrs in absence of Wistar-Han rat S9 fraction by Ames test; assay type: toxicity; conditions: salmonella enterica subsp. enterica serovar typhimurium, s9, 48 h
[17] = Mutagenicity in Salmonella typhimurium TA1535 at 30 to 5000 ug/plate incubated for 48 hrs in presence of Wistar-Han rat S9 fraction by Ames test; assay type: toxicity, subcellular; conditions: salmonella enterica subsp. enterica serovar typhimurium, s9, 48 h
[18] = Mutagenicity in Salmonella typhimurium TA98 at 30 to 5000 ug/plate incubated for 48 hrs in presence of Wistar-Han rat S9 fraction by Ames test; assay type: toxicity, subcellular; conditions: salmonella enterica subsp. enterica serovar typhimurium, s9, 48 h
[19] = Mutagenicity in Salmonella typhimurium TA100 at 30 to 5000 ug/plate incubated for 48 hrs in presence of Wistar-Han rat S9 fraction by Ames test; assay type: toxicity, subcellular; conditions: salmonella enterica subsp. enterica serovar typhimurium, s9, 48 h
[20] = molecular target: hERG (KCNH2) (Homo sapiens, UniProt Q12809); assay: Inhibition of hERG expressed in CHO cells at 30 uM by QPatch voltage clamp assay relative to control; assay type: toxicity, cell-based; conditions: CHO cells expressing hERG
[21] = molecular target: Nav1.5 (SCN5A) (Homo sapiens, UniProt Q14524); assay: Inhibition of human Nav1.5 expressed in HEK293 cells at 10 uM by QPatch voltage clamp assay relative to control; assay type: cell-based; conditions: HEK293 cells expressing human Nav1.5
[22] = Unbound drug concentration in guinea pig plasma at 15 mg/kg, iv administered continuously for 20 mins; assay type: ADME, organism-based, Cavia porcellus; conditions: in vivo
[23] = Cardiotoxicity in guinea pig assessed as effect on heart rate at 5 to 20 mg/kg, iv administered continuously for 20 min by ECG analysis; assay type: toxicity, organism-based, Cavia porcellus; conditions: in vivo, dose 5-20 mg/kg
[24] = Genotoxicity in human TK6 cells assessed as induction of DNA damage upto 31.9 uM; assay type: toxicity, cell-based; conditions: tk6, 31.9 µM
[25] = system: Brain; assay: In vivo inhibition of LRRK2 in Wistar-Han rat assessed as reduction in Ser935 phosphorylation in brain at 1 to 100 mg/kg, po measured after 2 hrs; assay type: functional; conditions: dose 1-100 mg/kg
[26] = AUC (0 to 24 hrs) in Wistar-Han rat at 48 mg administered twice a day by LC-MS/MS analysis; assay type: ADME; parameters: dose 48 mg; conditions: in vivo
[27] = Toxicity in Wistar-Han rat assessed as effect on diastolic blood pressure at 60 mg/kg, po administered as single dose and measured upto 24 hrs by telemetric analysis; assay type: organism-based; conditions: in vivo
[28] = Toxicity in Wistar-Han rat assessed as effect on mean blood pressure at 60 mg/kg, po administered as single dose and measured upto 24 hrs by telemetric analysis; assay type: organism-based; conditions: in vivo
[29] = Toxicity in Wistar-Han rat assessed as effect on heart rate at 60 mg/kg, po administered as single dose and measured upto 24 hrs by telemetric analysis; assay type: organism-based; conditions: in vivo
[30] = Toxicity in Wistar-Han rat assessed as effect on body temperature at 60 mg/kg, po administered as single dose and measured upto 24 hrs by telemetric analysis; assay type: organism-based; conditions: in vivo
[31] = Toxicity in Wistar-Han rat assessed as effect on spontaneous locomotor activity at 60 mg/kg, po administered as single dose and measured upto 24 hrs by telemetric analysis; assay type: organism-based; conditions: in vivo
[32] = Toxicity in Wistar-Han rat assessed as effect on spontaneous locomotor activity at 225 mg/kg, po administered as single dose and measured upto 24 hrs by telemetric analysis; assay type: organism-based; conditions: in vivo
[33] = AUC in Wistar-Han rat at 225 mg/kg, po administered once daily for 7 days; assay type: ADME, organism-based; parameters: time 7 day, dose 225 mg/kg, route po; conditions: in vivo
[34] = AUC in Wistar-Han rat at 750 mg/kg, po administered once daily for 7 days; assay type: ADME, organism-based; parameters: dose 750 mg/kg, time 7 day, route po; conditions: in vivo
[35] = Toxicity in Wistar-Han rat assessed as clinical observations at 750 mg/kg, po administered once daily for 7 days; assay type: organism-based; conditions: in vivo, 168 h, time 7 day
[36] = AUC in rhesus monkey at 200 mg/kg, po administered once daily for 7 days; assay type: ADME, organism-based, Macaca mulatta; parameters: dose 200 mg/kg, time 7 day, route po; conditions: in vivo
[37] = Toxicity in rhesus monkey assessed as body weight loss at 100 to 800 mg/kg, po administered once daily for 7 days; assay type: organism-based, Macaca mulatta; conditions: in vivo, 168 h, dose 100-800 mg/kg, time 7 day
[38] = In vivo inhibition of LRRK2 in rhesus monkey assessed as reduction in Ser935 phosphorylation in blood PBMC at 100 to 800 mg/kg, po administered once daily for 7 days; assay type: functional, Macaca mulatta; conditions: dose 100-800 mg/kg, time 7 day
[39] = In vivo inhibition of LRRK2 in rhesus monkey assessed as reduction in Ser935 phosphorylation in brain at 100 to 800 mg/kg, po administered once daily for 7 days; assay type: functional, Macaca mulatta; conditions: dose 100-800 mg/kg, time 7 day

Sequence of Leucine-rich repeat serine/threonine-protein kinase 2 (Q5S007 whole entry G2019S, the tested form may be a part): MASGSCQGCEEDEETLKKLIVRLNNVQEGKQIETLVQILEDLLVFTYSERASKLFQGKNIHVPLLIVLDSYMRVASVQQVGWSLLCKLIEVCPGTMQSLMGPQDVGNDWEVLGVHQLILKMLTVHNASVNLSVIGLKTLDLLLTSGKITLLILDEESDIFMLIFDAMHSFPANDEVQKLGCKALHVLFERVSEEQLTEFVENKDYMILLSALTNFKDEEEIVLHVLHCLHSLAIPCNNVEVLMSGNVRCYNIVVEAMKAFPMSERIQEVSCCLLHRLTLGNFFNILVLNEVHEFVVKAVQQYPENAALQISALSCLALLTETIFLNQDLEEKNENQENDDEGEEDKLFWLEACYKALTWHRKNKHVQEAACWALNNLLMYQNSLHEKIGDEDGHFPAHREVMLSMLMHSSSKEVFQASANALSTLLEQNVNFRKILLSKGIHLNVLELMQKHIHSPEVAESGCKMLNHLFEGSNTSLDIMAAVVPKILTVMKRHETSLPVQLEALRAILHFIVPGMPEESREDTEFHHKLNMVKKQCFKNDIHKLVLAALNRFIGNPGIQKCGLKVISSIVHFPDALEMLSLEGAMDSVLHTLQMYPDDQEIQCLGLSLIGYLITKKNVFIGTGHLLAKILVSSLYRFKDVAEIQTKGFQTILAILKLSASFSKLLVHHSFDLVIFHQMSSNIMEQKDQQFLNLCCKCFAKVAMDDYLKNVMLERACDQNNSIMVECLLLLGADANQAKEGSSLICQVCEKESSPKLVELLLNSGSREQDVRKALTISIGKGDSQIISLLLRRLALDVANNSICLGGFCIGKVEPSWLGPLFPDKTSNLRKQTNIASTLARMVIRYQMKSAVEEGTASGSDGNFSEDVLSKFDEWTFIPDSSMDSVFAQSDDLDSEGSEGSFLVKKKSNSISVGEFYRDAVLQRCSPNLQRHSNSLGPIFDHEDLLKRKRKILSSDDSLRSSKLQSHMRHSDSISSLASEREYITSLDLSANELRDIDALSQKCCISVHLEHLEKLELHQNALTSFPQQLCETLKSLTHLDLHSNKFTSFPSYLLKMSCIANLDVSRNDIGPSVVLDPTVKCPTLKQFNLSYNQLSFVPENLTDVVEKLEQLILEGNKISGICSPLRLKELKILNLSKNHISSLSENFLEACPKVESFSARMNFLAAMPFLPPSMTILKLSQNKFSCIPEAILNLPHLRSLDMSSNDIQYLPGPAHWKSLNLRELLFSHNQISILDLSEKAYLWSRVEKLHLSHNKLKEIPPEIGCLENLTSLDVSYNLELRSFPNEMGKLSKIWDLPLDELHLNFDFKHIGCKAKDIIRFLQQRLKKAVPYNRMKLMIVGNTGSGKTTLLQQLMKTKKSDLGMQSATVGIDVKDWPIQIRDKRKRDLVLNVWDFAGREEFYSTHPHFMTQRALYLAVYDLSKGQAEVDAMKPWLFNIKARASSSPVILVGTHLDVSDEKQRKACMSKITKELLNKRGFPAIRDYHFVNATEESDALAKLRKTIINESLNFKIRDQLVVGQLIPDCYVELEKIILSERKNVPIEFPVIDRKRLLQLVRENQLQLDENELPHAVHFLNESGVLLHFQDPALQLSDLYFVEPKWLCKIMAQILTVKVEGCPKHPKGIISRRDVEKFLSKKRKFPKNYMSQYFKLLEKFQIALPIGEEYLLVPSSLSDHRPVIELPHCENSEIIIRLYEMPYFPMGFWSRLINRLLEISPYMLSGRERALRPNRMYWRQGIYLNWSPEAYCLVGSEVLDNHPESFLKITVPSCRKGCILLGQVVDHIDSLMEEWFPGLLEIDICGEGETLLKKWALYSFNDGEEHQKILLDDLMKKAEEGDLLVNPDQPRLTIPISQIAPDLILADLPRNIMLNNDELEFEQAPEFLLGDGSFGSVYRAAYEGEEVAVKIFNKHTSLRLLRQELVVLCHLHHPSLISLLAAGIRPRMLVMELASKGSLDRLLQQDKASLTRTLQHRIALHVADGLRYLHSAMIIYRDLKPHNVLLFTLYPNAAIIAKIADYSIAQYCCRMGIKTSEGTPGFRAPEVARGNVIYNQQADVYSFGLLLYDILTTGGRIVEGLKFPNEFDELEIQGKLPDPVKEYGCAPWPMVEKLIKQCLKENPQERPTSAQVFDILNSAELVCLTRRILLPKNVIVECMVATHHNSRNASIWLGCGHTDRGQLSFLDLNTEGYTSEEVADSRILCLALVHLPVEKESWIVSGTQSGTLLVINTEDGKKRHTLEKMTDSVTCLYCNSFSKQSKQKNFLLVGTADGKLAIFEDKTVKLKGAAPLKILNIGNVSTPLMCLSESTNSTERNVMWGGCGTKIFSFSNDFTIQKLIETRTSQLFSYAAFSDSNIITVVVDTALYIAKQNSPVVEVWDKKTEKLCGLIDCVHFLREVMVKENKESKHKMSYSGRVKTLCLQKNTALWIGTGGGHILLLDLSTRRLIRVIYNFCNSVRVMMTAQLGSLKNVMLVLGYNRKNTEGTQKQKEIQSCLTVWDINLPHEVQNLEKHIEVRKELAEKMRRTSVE
Sequence of Nav1.5 (SCN5A) (Q14524 whole entry): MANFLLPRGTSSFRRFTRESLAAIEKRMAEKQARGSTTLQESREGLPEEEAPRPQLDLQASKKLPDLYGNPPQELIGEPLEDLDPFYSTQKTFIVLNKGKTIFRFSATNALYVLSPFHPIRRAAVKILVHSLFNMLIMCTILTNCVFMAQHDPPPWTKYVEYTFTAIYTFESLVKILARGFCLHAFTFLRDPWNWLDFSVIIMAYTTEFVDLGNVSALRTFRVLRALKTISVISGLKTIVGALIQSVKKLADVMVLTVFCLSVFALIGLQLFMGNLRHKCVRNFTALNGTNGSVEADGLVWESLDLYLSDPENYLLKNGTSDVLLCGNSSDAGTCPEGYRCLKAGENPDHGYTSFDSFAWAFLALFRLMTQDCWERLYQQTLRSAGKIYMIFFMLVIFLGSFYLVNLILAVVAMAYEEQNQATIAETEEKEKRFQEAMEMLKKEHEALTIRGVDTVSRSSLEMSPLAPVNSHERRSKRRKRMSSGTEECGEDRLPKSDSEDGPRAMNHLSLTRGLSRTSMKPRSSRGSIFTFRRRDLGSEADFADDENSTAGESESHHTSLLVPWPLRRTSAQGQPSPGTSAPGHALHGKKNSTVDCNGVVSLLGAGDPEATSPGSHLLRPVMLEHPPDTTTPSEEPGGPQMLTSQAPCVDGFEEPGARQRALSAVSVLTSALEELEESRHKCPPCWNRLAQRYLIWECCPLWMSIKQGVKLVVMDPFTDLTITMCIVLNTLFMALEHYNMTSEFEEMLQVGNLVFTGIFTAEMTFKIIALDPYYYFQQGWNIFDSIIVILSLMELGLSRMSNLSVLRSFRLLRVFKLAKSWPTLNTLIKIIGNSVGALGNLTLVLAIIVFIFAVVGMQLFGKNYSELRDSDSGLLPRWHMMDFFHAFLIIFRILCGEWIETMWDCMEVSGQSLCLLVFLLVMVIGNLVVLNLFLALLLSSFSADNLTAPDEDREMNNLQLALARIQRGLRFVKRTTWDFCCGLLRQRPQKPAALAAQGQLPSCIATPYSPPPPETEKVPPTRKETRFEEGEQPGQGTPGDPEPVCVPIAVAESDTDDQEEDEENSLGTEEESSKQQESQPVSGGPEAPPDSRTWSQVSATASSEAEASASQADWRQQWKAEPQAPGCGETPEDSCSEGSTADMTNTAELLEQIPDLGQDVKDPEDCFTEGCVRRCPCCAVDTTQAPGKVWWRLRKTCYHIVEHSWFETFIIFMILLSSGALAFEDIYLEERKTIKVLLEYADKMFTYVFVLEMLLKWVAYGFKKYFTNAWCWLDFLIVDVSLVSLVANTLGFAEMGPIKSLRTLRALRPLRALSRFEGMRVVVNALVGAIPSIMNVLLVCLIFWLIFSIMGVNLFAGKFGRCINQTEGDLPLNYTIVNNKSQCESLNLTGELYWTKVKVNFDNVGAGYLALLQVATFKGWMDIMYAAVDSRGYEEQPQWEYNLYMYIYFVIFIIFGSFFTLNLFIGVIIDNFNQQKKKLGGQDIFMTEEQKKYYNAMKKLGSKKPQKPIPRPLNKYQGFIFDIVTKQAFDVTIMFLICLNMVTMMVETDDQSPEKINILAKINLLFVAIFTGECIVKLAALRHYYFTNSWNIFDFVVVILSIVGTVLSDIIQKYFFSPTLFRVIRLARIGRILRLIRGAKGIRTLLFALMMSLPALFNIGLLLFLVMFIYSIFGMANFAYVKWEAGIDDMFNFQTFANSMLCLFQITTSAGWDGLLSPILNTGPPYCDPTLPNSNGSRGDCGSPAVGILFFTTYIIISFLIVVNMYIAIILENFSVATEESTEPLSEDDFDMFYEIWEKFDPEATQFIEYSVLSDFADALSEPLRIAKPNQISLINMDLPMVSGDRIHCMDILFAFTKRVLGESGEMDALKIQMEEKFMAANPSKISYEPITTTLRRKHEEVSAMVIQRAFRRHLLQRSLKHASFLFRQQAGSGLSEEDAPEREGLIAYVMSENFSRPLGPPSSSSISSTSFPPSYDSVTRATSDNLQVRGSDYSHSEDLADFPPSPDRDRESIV

IC50 [2]: 0.4 nM
efflux ratio at 3 h [4]: 2.1
efflux ratio at 3 h [5]: 2.6
Kp uu [6]: 0.3
clearance [7]: 56 mL/min/kg
CL [8]: 1435 mL/min/kg
clearance [9]: 22 mL/min/kg
CL [10]: 149 mL/min/kg
bioavailability [11]: 100%
MRT [12]: 3.6 h
bioavailability [13]: 9%
fraction unbound at 4 h [14]: 0.115
solubility kinetic at 24 h [15]: 6 µM (≈ 3.01 µg/mL)
Cp(f) [22]: 5.69 µM
AUC [26]: 6 µM·h
AUC at 168 h [33]: 88 µM·h
AUC at 168 h [34]: 395 µM·h
AUC at 168 h [36]: 25 µM·h
Structure (SMILES): C[C@@]1(N2CCN(c3cc4cc(NC(=O)[C@H]5CC56CCOCC6)ncc4cc3Cl)CC2)COC[C@@H]1O
Activity [1]: Toxic
inhibition at 10 µM [3]: 15%
Activity [16]: Non-Toxic
Activity [17]: Non-Toxic
Activity [18]: Non-Toxic
Activity [19]: Non-Toxic
inhibition at 30 µM [20]: 39%
inhibition at 10 µM [21]: 23%
Activity [23]: Non-Toxic
Activity [24]: Non-Toxic
fIC50 [25]: 33 nM
Activity [27]: Non-Toxic
Activity [28]: Non-Toxic
Activity [29]: Non-Toxic
Activity [30]: Non-Toxic
Activity [31]: Non-Toxic
Activity [32]: Non-Toxic
Activity [35]: Non-Toxic
Activity [37]: Non-Toxic
fIC50 [38]: 4.7 nM
fIC50 [39]: 7 nM
